Test results reported in ChEMBL document CHEMBL5550222, “Synthesis and Biological Evaluation of Novel Psidium Meroterpenoid Derivatives against Cisplatin-Induced Acute Kidney Injury” (J Med Chem, 2024).

Experiments:
HK-2 [1] = experiment: Protection against cisplatin-induced nephrotoxicity in human HK-2 cells assessed as cell viability at 1 uM preincubated with compound for 2 hrs followed by cisplatin induction and measured after 72 hrs by MTT assay (reference value: 37.37 +/- 1.35%); type: functional; conditions: time 74 hrs, read-out: Activity
HK-2 [2] = experiment: Protection against cisplatin-induced nephrotoxicity in human HK-2 cells assessed as cell viability at 5 uM preincubated with compound for 2 hrs followed by cisplatin induction and measured after 72 hrs by MTT assay (reference value: 37.37 +/- 1.35%); type: functional; conditions: time 74 hrs, read-out: Activity
HK-2 [3] = experiment: Protection against cisplatin-induced nephrotoxicity in human HK-2 cells assessed as cell viability at 10 uM preincubated with compound for 2 hrs followed by cisplatin induction and measured after 72 hrs by MTT assay (reference value: 37.37 +/- 1.35%); type: functional; conditions: time 74 hrs, read-out: Activity
[4] = Cytotoxicity against human HK-2 cells incubated for 72 hrs by MTT assay; type: toxicity, cell-based

Row | SMILES | viability at 1 µM (HK-2 [1]) [%] | viability at 5 µM (HK-2 [2]) [%] | viability at 10 µM (HK-2 [3]) [%] | IC50 at 72 h [4] [µM]
1 | COc1c(C=O)c(OC)c(C(=O)c2ccccc2)c2c1CC1C[C@@H]3[C@H](CC1(C)O2)C3(C)C (stereo partly drawn) | 36.3 | 39.8 | 39 | > 10
2 | COc1c(CO)c2c(c(OC)c1C(=O)c1ccccc1)CC1C[C@@H]3[C@H](CC1(C)O2)C3(C)C (stereo partly drawn) | – | – | – | 6.42
3 | COc1c(CN2CCN(C)CC2)c(OC)c(C(=O)c2ccccc2)c2c1CC1CCCCC1(C)O2 (stereo not drawn) | 30.4 | 24.2 | 25.9 | > 10
4 | COc1c2c(c(C(=O)c3ccccc3)c(OC)c1C(=O)O)OC1(C)CCCCC1C2 (stereo not drawn) | 38.8 | 35.9 | 25.7 | > 10
5 | COc1c2c(c(C(=O)c3ccccc3)c(OC)c1C(=O)O)OC(C)(C)C(C)C2 (stereo not drawn) | 33.6 | 30.4 | 33.4 | > 10
6 | COc1c(CN2CCN(C)CC2)c(OC)c(C(=O)c2ccccc2)c2c1CC1CCCC1(C)O2 (stereo not drawn) | 38 | 37.5 | 43.7 | > 10
7 | COc1c2c(c(CN3CCN(C)CC3)c(OC)c1C(=O)c1ccccc1)OC1(C)C[C@H]3[C@@H](CC1C2)C3(C)C (stereo partly drawn) | 37.5 | 41.9 | 40.8 | > 10
8 | COc1c2c(c(C(=O)c3ccccc3)c(OC)c1C(=O)O)OC1(C)C[C@H]3[C@@H](CC1C2)C3(C)C (stereo partly drawn) | 30.2 | – | 40 | > 10
9 | COc1c(CO)c(OC)c(C(=O)c2ccccc2)c2c1CC1CCCC1(C)O2 (stereo not drawn) | 35 | 25.9 | 26.5 | > 10
10 | COc1c(CO)c2c(c(OC)c1C(=O)c1ccccc1)CC1CCCC1(C)O2 (stereo not drawn) | 34.9 | 37.5 | 45.4 | > 10
11 | COc1c(CO)c2c(c(OC)c1C(=O)c1ccccc1)CC1CCCCC1(C)O2 (stereo not drawn) | 37.7 | 41.8 | 36.9 | > 10
12 | COc1c2c(c(C(=O)O)c(OC)c1C(=O)c1ccccc1)OC1(C)C[C@H]3[C@@H](CC1C2)C3(C)C (stereo partly drawn) | 31.5 | 21.6 | 25.4 | > 10
13 | CC12CCCCC1Cc1c(O)c(C=O)c(O)c(C(=O)c3ccccc3)c1O2 (stereo not drawn) | 33.6 | 41.3 | 42.5 | > 10
14 | COc1c(C=O)c2c(c(OC)c1C(=O)c1ccccc1)CC(C)C(C)(C)O2 (stereo not drawn) | 37.5 | 43.7 | 46.2 | > 10
15 | CC12CCCCC1Cc1c(O)c(C(=O)c3ccccc3)c(O)c(C=O)c1O2 (stereo not drawn) | 34.8 | 39.3 | 38 | > 10
16 | COc1c2c(c(C(=O)O)c(OC)c1C(=O)c1ccccc1)OC(C)(C)C(C)C2 (stereo not drawn) | 37.8 | 28.9 | 32 | > 10
17 | COc1c(C=O)c2c(c(OC)c1C(=O)c1ccccc1)CC1CCCC1(C)O2 (stereo not drawn) | 37.4 | 33.4 | 30.8 | > 10
18 | COc1c(CO)c(OC)c(C(=O)c2ccccc2)c2c1CC(C)C(C)(C)O2 (stereo not drawn) | 38.3 | 31.4 | 34.2 | > 10
19 | COc1c2c(c(CN3CCN(C)CC3)c(OC)c1C(=O)c1ccccc1)OC(C)(C)C(C)C2 (stereo not drawn) | 39.7 | 33 | 38.2 | > 10

Row | SMILES | viability at 1 µM (HK-2 [1]) [%] | viability at 5 µM (HK-2 [2]) [%] | viability at 10 µM (HK-2 [3]) [%] | IC50 at 72 h [4] [µM]
20 | COc1c(CN2CCN(C)CC2)c(OC)c(C(=O)c2ccccc2)c2c1CC(C)C(C)(C)O2 (stereo not drawn) | 37.2 | 39.2 | 38.9 | > 10
21 | COc1c(CO)c(OC)c(C(=O)c2ccccc2)c2c1CC1C[C@@H]3[C@H](CC1(C)O2)C3(C)C (stereo partly drawn) | 36 | 43.1 | 59.2 | > 10
22 | COc1c2c(c(CN3CCN(C)CC3)c(OC)c1C(=O)c1ccccc1)OC1(C)CCCCC1C2 (stereo not drawn) | 40.2 | 37.1 | 37 | > 10
23 | CC1Cc2c(O)c(C=O)c(O)c(C(=O)c3ccccc3)c2OC1(C)C (stereo not drawn) | 39.9 | 43.6 | 47 | > 10
24 | COc1c(CO)c(OC)c(C(=O)c2ccccc2)c2c1CC1CCCCC1(C)O2 (stereo not drawn) | 38.8 | 44.3 | 44.6 | > 10
25 | COc1c(CN2CCN(C)CC2)c(OC)c(C(=O)c2ccccc2)c2c1CC1C[C@@H]3[C@H](CC1(C)O2)C3(C)C (stereo partly drawn) | 39.9 | 40.1 | 18.5 | > 10
26 | COc1c2c(c(CN3CCN(C)CC3)c(OC)c1C(=O)c1ccccc1)OC1(C)CCCC1C2 (stereo not drawn) | 36.4 | 39.4 | 38.3 | > 10
27 | CC12C[C@H]3[C@@H](CC1Cc1c(O)c(C(=O)c4ccccc4)c(O)c(C=O)c1O2)C3(C)C (stereo partly drawn) | – | – | – | 9.31
28 | COc1c(C=O)c2c(c(OC)c1C(=O)c1ccccc1)CC1CCCCC1(C)O2 (stereo not drawn) | 34.1 | 35.2 | 44.9 | > 10
29 | CC12CCCC1Cc1c(O)c(C(=O)c3ccccc3)c(O)c(C=O)c1O2 (stereo not drawn) | 37.2 | 38.2 | 38.6 | > 10
30 | COc1c2c(c(C(=O)O)c(OC)c1C(=O)c1ccccc1)OC1(C)CCCCC1C2 (stereo not drawn) | 38.2 | 30.7 | 28 | > 10
31 | COc1c(C=O)c(OC)c(C(=O)c2ccccc2)c2c1CC(C)C(C)(C)O2 (stereo not drawn) | 26.8 | 30.4 | 43.5 | > 10
32 | COc1c2c(c(C(=O)O)c(OC)c1C(=O)c1ccccc1)OC1(C)CCCC1C2 (stereo not drawn) | 32.3 | 29.6 | 32.6 | > 10
33 | COc1c(C=O)c(OC)c(C(=O)c2ccccc2)c2c1CC1CCCCC1(C)O2 (stereo not drawn) | 35.3 | 34.4 | 30.1 | > 10
34 | COc1c(C=O)c(OC)c(C(=O)c2ccccc2)c2c1CC1CCCC1(C)O2 (stereo not drawn) | 38.2 | 44.9 | 49.4 | > 10
35 | CC1Cc2c(O)c(C(=O)c3ccccc3)c(O)c(C=O)c2OC1(C)C (stereo not drawn) | 37.7 | 33.2 | 28.1 | > 10
36 | COc1c2c(c(C(=O)c3ccccc3)c(OC)c1C(=O)O)OC1(C)CCCC1C2 (stereo not drawn) | 37.2 | 35.2 | 31.8 | > 10
37 | CC12C[C@H]3[C@@H](CC1Cc1c(O)c(C=O)c(O)c(C(=O)c4ccccc4)c1O2)C3(C)C (stereo partly drawn) | – | – | – | 7.81
